The results in this text go back to US20220306647A1, “NOVEL INDOLE-2-CARBOXAMIDES ACTIVE AGAINST THE HEPATITUS B VIRUS (HBV)” (AICURIS GMBH & CO. KG, priority 2019, published 2022).

The test system of assay [1] is HBV (HepAD38 cells). In words: HBV replication assay: determination of HBV DNA from the supernatants of HepAD38 cells. Type of assay: cell-based. Particulars: Hepatitis B virus, 144 h, HBV DNA in HepAD38 supernatant at day 6, qPCR, read-out: Cell activity. How it is done:
Determination of HBV DNA from the Supernatants of HepAD38 Cells
The anti-HBV activity was analysed in the stable transfected cell line HepAD38, which has been described to secrete high levels of HBV virion particles (Ladner et al., 1997). In brief, HepAD38 cells were cultured at 37° C. at 5% CO2 and 95% humidity in 200 μl maintenance medium, which was Dulbecco's modified Eagle's medium/Nutrient Mixture F-12 (Gibco, Karlsruhe), 10% fetal bovine serum (PAN Biotech Aidenbach) supplemented with 50 μg/ml penicillin/streptomycin (Gibco, Karlsruhe), 2 mM L-glutamine (PAN Biotech, Aidenbach), 400 μg/ml G418 (AppliChem, Darmstadt) and 0.3 μg/ml tetracycline. Cells were subcultured once a week in a 1:5 ratio, but were usually not passaged more than ten times. For the assay 60,000 cells were seeded in maintenance medium without any tetracycline into each well of a 96-well plate and treated with serial half-log dilutions of test compound. To minimize edge effects the outer 36 wells of the plate were not used but were filled with assay medium. On each assay plate six wells for the virus control (untreated HepAD38 cells) and six wells for the cell control (HepAD38 cells treated with 0.3 μg/ml tetracycline) were allocated, respectively. In addition, one plate set with reference inhibitors like BAY 41-4109, entecavir, and lamivudine instead of screening compounds were prepared in each experiment. In general, experiments were performed thrice in triplicates. At day 6 HBV DNA from 100 μl filtrated cell culture supernatant (AcroPrep Advance 96 Filter Plate, […] Supor membran, PALL GmbH, Dreieich) was automatically purified on the MagNa Pure LC instrument using the MagNA Pure 96 DNA and Viral NA Small Volume Kit (Roche Diagnostics, Mannheim) according to the instructions of the manufacturer. EC50 values were calculated from relative copy numbers of HBV DNA In brief, 5 μl of the 100 μl eluate containing HBV DNA were subjected to PCR LC480 Probes Master Kit (Roche) together with 1 μM antisense primer […], 0.5 μM sense primer […], 0.3 μM hybprobes […]-FL and LC640-[…]-PH (TIBMolBiol, Berlin) to a final volume of 12.5 μl. The PCR was performed on the Light Cycler 480 real time system (Roche Diagnostics, Mannheim) using the following protocol: Pre-incubation for 1 min at 95° C., amplification: 40 cycles×(10 sec at 95° C., 50 sec at 60° C., 1 sec at 70° C.), cooling for 10 sec at 40° C. Viral load was quantitated against known standards using HBV plasmid DNA of pCH-9/3091 (Nassal et al., 1990, Cell 63: 1357-1363) and the LightCycler 480 SW 1.5 software (Roche Diagnostics, Mannheim) and EC50 values were calculated using non-linear regression with GraphPad Prism 6 (GraphPad Software Inc., La Jolla, USA).

The target in assay [2] is T1, HBV core protein (C-terminal truncated core protein, 149 amino acids of the N-terminal assembly domain, BODIPY-FL labelled) (UniProt P03146).
T1 construct: fused on or other part: A single cysteine added after residue 149, at position 150; It carries the BODIPY-FL maleimide label
T1 sequence (P03146 whole entry, the tested form may be a part): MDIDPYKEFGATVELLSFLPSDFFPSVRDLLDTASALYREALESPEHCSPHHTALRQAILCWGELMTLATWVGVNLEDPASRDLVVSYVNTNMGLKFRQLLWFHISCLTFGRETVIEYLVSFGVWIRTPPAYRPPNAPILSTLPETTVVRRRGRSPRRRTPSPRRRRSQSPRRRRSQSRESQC
Nature of the assay: Biochemical capsid assembly assay (fluorescence quenching). To be noted: assembly started with NaCl, fluorescence read after 6 min, read-out: Assembly activity. As to the method: The screening for assembly effector activity was done based on a fluorescence quenching assay published by Zlotnick et al. (2007). The C-terminal truncated core protein containing 149 amino acids of the N-terminal assembly domain fused to a unique cysteine residue at position 150 and was expressed in E. coli using the pET expression system (Merck Chemicals, Darmstadt). Purification of core dimer protein was performed using a sequence of size exclusion chromatography steps. In brief, the cell pellet from 1 L BL21 (DE3) Rosetta2 culture expressing the coding sequence of core protein cloned NdeI/XhoI into expression plasmid pET21b was treated for 1 h on ice with a native lysis buffer (Qproteome Bacterial Protein Prep Kit; Qiagen, Hilden). After a centrifugation step the supernatant was precipitated during 2 h stirring on ice with 0.23 g/ml of solid ammonium sulfate. Following further centrifugation the resulting pellet was resolved in buffer A (100 mM Tris, pH 7.5; 100 mM NaCl; 2 mM DTT) and was subsequently loaded onto a buffer A equilibrated CaptoCore 700 column (GE HealthCare, Frankfurt). The column flow through containing the assembled HBV capsid was dialyzed against buffer N (50 mM NaHCO3 pH 9.6; 5 mM DTT) before urea was added to a final concentration of 3M to dissociate the capsid into core dimers for 1.5 h on ice. The protein solution was then loaded onto a 1L Sephacryl S300 column. After elution with buffer N core dimer containing fractions were identified by SDS-PAGE and subsequently pooled and dialyzed against 50 mM HEPES pH 7.5; 5 mM DTT. To improve the assembly capacity of the purified core dimers a second round of assembly and disassembly starting with the addition of 5 M NaCl and including the size exclusion chromatography steps described above was performed. From the last chromatography step core dimer containing fractions were pooled and stored in aliquots at concentrations between 1.5 to 2.0 mg/ml at −80° C.
Immediately before labelling the core protein was reduced by adding freshly prepared DTT in a final concentration of 20 mM. After 40 min incubation on ice storage buffer and DTT was removed using a Sephadex G-25 column (GE HealthCare, Frankfurt) and 50 mM HEPES, pH 7.5. For labelling 1.6 mg/ml core protein was incubated at 4° C. and darkness overnight with BODIPY-FL maleimide (Invitrogen, Karlsruhe) in a final concentration of 1 mM. After labelling the free dye was removed by an additional desalting step using a Sephadex G-25 column. Labelled core dimers were stored in aliquots at 4° C. In the dimeric state the fluorescence signal of the labelled core protein is high and is quenched during the assembly of the core dimers to high molecular capsid structures. The screening assay was performed in black 384 well microtiter plates in a total assay volume of 10 μl using 50 mM HEPES pH 7.5 and 1.0 to 2.0 μM labelled core protein. Each screening compound was added in 8 different concentrations using a 0.5 log-unit serial dilution starting at a final concentration of 100 μM, 31.6 μM or 10 μM, In any case the DMSO concentration over the entire microtiter plate was 0.5%. The assembly reaction was started by the injection of NaCl to a final concentration of […] which induces the assembly process to approximately 25% of the maximal quenched signal. 6 min after starting the reaction the fluorescence signal was measured using a Clariostar plate reader (BMG Labtech, Ortenberg) with an excitation of 477 nm and an emission of 525 nm. As 100% and 0% assembly control HEPES buffer containing 2.5 M and 0 M NaCl was used. Experiments were performed thrice in triplicates. EC50 values were calculated by non-linear regression analysis using the Graph Pad Prism 6 software (GraphPad Software, La Jolla, USA).

As to `O=C(c1cc2ccccc2[nH]1)N1CCc2onc(C(=O)N3CCCC34CC4)c2C1` [Example 1, 2-(3-{4-azaspiro[2.4]heptane-4-carbonyl}-4H,5H,6H,7H-[1,2]oxazolo[4,5-c]pyridine-5-carbonyl)-1H-indole], the EC50 in assay [1] fell in the range of 1 to 10 µM.
Turning to `CN(C(=O)c1noc2c1CN(C(=O)c1cc3ccccc3[nH]1)CC2)C1(c2cocn2)CC1` [Example 2, 5-(1H-indole-2-carbonyl)-N-methyl-N-[1-(1,3-oxazol-4-yl)cyclopropyl]-4H,5H,6H,7H-[1,2]oxazolo[4,5-c]pyridine-3-carboxamide], the IC50 in assay [2] was below 5 µM. Moreover, in assay [1], the EC50 is below 1 µM.
For `CCc1cc(F)cc2[nH]c(C(=O)N3CCc4onc(C(=O)N(C)C5(COC)CC5)c4C3)cc12` [Example 4, 5-(4-ethyl-6-fluoro-1H-indole-2-carbonyl)-N-[1-(methoxymethyl)cyclopropyl]-N-methyl-4H,5H,6H,7H-[1,2]oxazolo[4,5-c]pyridine-3-carboxamide] the same measures were below 5 µM and below 1 µM.
For `COCC1(N(C)C(=O)c2noc3c2CN(C(=O)c2cc4c(Cl)cccc4[nH]2)CC3)CC1` [Example 5, 5-(4-chloro-1H-indole-2-carbonyl)-N-[1-(methoxymethyl)cyclopropyl]-N-methyl-4H,5H,6H,7H-[1,2]oxazolo[4,5-c]pyridine-3-carboxamide], the IC50 in assay [2] was below 5 µM. Besides, the EC50 in assay [1] is below 1 µM.
On to `COCC1(N(C)C(=O)c2noc3c2CN(C(=O)c2cc4c(F)cc(F)cc4[nH]2)CC3)CC1` [Example 6, 5-(4,6-difluoro-1H-indole-2-carbonyl)-N-[1-(methoxymethyl)cyclopropyl]-N-methyl-4H,5H,6H,7H-[1,2]oxazolo[4,5-c]pyridine-3-carboxamide], for which the IC50 in assay [2] was below 5 µM. The EC50 in assay [1] is below 1 µM.
The matching figures for `COCC1(N(C)C(=O)c2noc3c2CN(C(=O)c2cc4ccccc4[nH]2)CC3)CC1` [Example 7, 5-(1H-indole-2-carbonyl)-N-[1-(methoxymethyl)cyclopropyl]-N-methyl-4H,5H,6H,7H-[1,2]oxazolo[4,5-c]pyridine-3-carboxamide]: below 5 µM and below 1 µM.
The matching figures for `CN(C(=O)c1noc2c1CN(C(=O)c1cc3ccccc3[nH]1)CC2)C1(CO)CC1` [Example 8, N-[I1-(hydroxymethyl)cyclopropyl]-5-(1H-indole-2-carbonyl)-N-methyl-4H,5H,6H,7H-[1,2]oxazolo[4,5-c]pyridine-3-carboxamide]: below 5 µM and below 1 µM.
On to `CN(C(=O)c1noc2c1CN(C(=O)c1cc3ccccc3[nH]1)CC2)C1(COC(=O)c2ccccc2)CC1` [Example 9, {1-[N-methyl-5-(1H-indole-2-carbonyl)-4H,5H,6H,7H-[1,2]oxazolo[4,5-c]pyridine-3-amido]cyclopropyl}methyl benzoate], for which the EC50 in assay [1] was below 1 µM.
For the compound `O=C(NC1CC1)c1noc2c1CN(C(=O)c1cc3ccccc3[nH]1)CC2` [Example 10, N-cyclopropyl-5-(1H-indole-2-carbonyl)-4H,5H,6H,7H-[1,2]oxazolo[4,5-c]pyridine-3-carboxamide], in assay [2], the IC50 is below 5 µM. Besides, the EC50 in assay [1] was below 100 µM.
As for `CN(C(=O)c1noc2c1CN(C(=O)c1cc3ccccc3[nH]1)CC2)C1CC1` [Example 11, N-cyclopropyl-5-(1H-indole-2-carbonyl)-N-methyl-4H,5H,6H,7H-[1,2]oxazolo[4,5-c]pyridine-3-carboxamide], the IC50 in assay [2] was below 5 µM. The EC50 in assay [1] is below 100 µM.
As for `CN(C(=O)c1cnn2c1CN(C(=O)c1cc3ccccc3[nH]1)CC2)C1(c2ccc(C(=O)O)cc2)CC1` [Example 12, 4-{1-[N-methyl-5-(1H-indole-2-carbonyl)-4H,5H,6H,7H-pyrazolo[1,5-a]pyrazine-3-amido]cyclopropyl}benzoic acid], in assay [2], the IC50 was below 5 µM. The EC50 in assay [1] was below 1 µM.
On to `O=C(c1cc2ccccc2[nH]1)N1CCc2onc(C(=O)N3CCC(F)(F)C3)c2C1` [Example 25, 2-[3-(3,3-difluoropyrrolidine-1-carbonyl)-4H,5H,6H,7H-[1,2]oxazolo[4,5-c]pyridine-5-carbonyl]-1H-indole], for which the EC50 in assay [1] lay in the range of 1 to 10 µM.
Take `O=C(c1cc2ccccc2[nH]1)N1CCc2nn3c(c2C1)C(=O)N(CC(F)F)C1(CC3)CC1` [Example 147, 13′-(2,2-difluoroethyl)-4′-(1H-indole-2-carbonyl)-4′,8′,9′,13′-tetraazaspiro[cyclopropane-1,12′-tricyclo[7.5.0.0^2,7]tetradecane]-1′,7′-dien-14′-one]: in assay [2], the IC50 was below 5 µM.
On the same count and under the same terms, under `O=C(c1cc2ccccc2[nH]1)N1CCc2nn3c(c2C1)C(=O)N(CC(F)(F)F)C1(CC3)CC1` [Example 148, 4′-(1H-indole-2-carbonyl)-13′-(2,2,2-trifluoroethyl)-4′,8′,9′,13′-tetraazaspiro[cyclopropane-1,12′-tricyclo[7.5.0.0^2,7]tetradecane]-1′,7′-dien-14′-one] stands below 5 µM; under `COC(=O)CN1C(=O)c2c3c(nn2CCC12CC2)CCN(C(=O)c1cc2ccccc2[nH]1)C3` [Example 149, methyl 2-[4′-(1H-indole-2-carbonyl)-14′-oxo-4′, 8′,9′,13′-tetraazaspiro[cyclopropane-1,12′-tricyclo[7.5.0.0^2,7]tetradecane]-1′,7′-dien-13′-yl]acetate], below 5 µM.
